Source: patent US12059413B2, “Methods of inhibiting viruses using compositions targeting TSG101-ubiquitin interaction” (The Research Foundation for the State University of New York, priority 2016, dated 2024)

How the values were obtained:
[1] = system: Gag-Tsg101 co-localization on the plasma membrane; assay: Gag-Tsg101 co-localization by fluorescence microscopy, Pearson's coefficient; type: cell-based
Procedure: FIG. 19A-F. N16 (50 μM) prevents co-localization of Gag and Tsg101 on the plasma membrane. A-E) Fluorescence microscopy images of cells that co-express Tsg101-Myc alone or GagWT-GFP and Tsg101-Myc. Cells grown on coverslips were co-transfected with DNA encoding Tsg101-Myc (A) or Tsg101-Myc and GagWT-GFP (B, D and E) or GagP7L-GFP (C) and treated with F15 (D) or N16 (E). After 24 hr the coverslips were processed for microscopy with Tsg101-Myc detected with anti-Myc antibody and Texas Red secondary antibody as described in Materials & Methods. A) Tsg101-Myc in cells treated with DMSO carrier (top) or N16 (bottom). B-E), Top panels, show signal from Gag-GFP; middle panels, images showing Tsg101-Myc signal; bottom panels, merged images showing signals from Gag-GFP and Tsg101-Myc. Boxes frame a region of the plasma membrane. F) Pearson's coefficient of correlation values determined for the images shown. Error bars indicate the highest values obtained for similar samples. n=6.
FIG. 26A-D. N16 binds covalently to C73 in the Tsg101 UEV domain. A) Activation of N16 to reactive sulfenamide. N16 (i) is converted to intermediates sulfenic acid (ii) and sulfenamide (iii) through acid catalysis to yield a covalently attached N16-Tsg101 UEV complex (iv). B) HNCACB Cβ regions for residues C73, L74, 186 and C87 of Tsg101 without (−) and with (+) N16. C) Examination by fluorescence microscopy of cells co-expressing GagWT-GFP and Tsg101WT-Myc, Tsg101C73A-Myc or Tsg101C87A-Myc in the absence and presence of 50 μM N16. n=3 D) Pearson's coefficient of correlation values.
Hela cells grown on cover slips were transfected with pCMV-Gag-EGFP alone or together with pLLEXP1-hTsg101-myc. Cells were fixed in 4% formaldehyde (Sigma) and permeabilized in 0.1% Triton X-100. Tsg101 was detected in the samples by indirect immunofluorescence using anti-myc Mab and Texas Red anti-mouse IgG. Nuclei were stained with Hoechst. Images were captured on an inverted fluorescence/differential-interference contrast (dic) Zeiss Axiovert 200M deconvolving fluorescence microscope operated by AxioVision Version 4.5 (Zeiss) software and deconvolved by using the constrained iterative method (AxioVision). Protein co-localization was assessed in 40 or more cells by determination of Pearson's coefficient of correlation using Image J software and regarded as significant when a value of 0.6 or higher (equivalent to a 95% level of confidence for that number of cells) was observed (Manders, E. M. M., et al. (1993)).

HIV-1 Gag VLP = assay: Gag VLP production / budding, Western blot analysis; type: cell-based
Procedure: FIG. 15A-D. N16 inhibits HIV-1 NL4-3 and Gag VLP production. A) Effect on virus production. Virus particles from N16-treated 293T cells transfected with pNL4-3 as determined by ELISA assay. Top, The compound was added 6 hr prior to DNA transfection and tissue culture media was harvested 24 hr later. Bottom, The compound was added at the indicated concentration 24 hr after DNA transfection and tissue culture media was harvested 24 hr later. Assay values were normalized to that of the DMSO carrier control. B) Effect on virus infectivity. Infectious viral particles per ng p24 as determined by MAGI assay. C) Left, Electron microscopy of particles at cell surface at 24 hr post-N16 addition; Right, Quantitative analysis of budding morphologies. Cells expressing WT- or P7L-NL4-3 were exposed to DMSO carrier or 50 μM N16. Arrows indicate emerging ‘Early’ buds. D) Effects on Gag VLP production. Top, Western blot analysis. Cells treated at the indicated concentration were transfected with DNA encoding Gag-HA. At the end of the treatment period, tissue culture media was removed for VLP isolation. Cells were suspended in lysis buffer. Blots were probed for Gag-HA and actin. Bottom, Quantitative analysis. Ratio of VLP- or cell-associated Gag to actin normalized to the mock-treated control (0 μM N16). Number of independent trials (n) for A), B), C), and D)=3, 2, 2 and 3, respectively.
FIG. 21A-B. N16 suppresses the inhibitory effect of fusing DUb to Gag. […] Top, Western blot analysis of Gag in cushioned VLP samples; Middle, Gag and actin in cell lysates; Bottom, Quantitative analysis of VLP release efficiency normalized to the WT Gag control (Gag and Gag-DUb differed in sample size in order to yield visible signal); B) Effect of N16 on Gag and GagDUb VLP production. […] Bottom, Quantitative analysis of VLP production (left), lysate Gag (center) and VLP release efficiency (right) normalized to the mock-treated control. […]
For production of virus particles, 293T cells were transfected with pNL4-3-ΔEnv and pIIIB Env3-1 plasmids and for virus-like particles (VLP), with pCMV-Gag-HA as previously described (Watanabe et al. (2013)). For specific infectivity, media-associated p24 was determined by ELISA (Immunodiagnostics, Inc.) and equivalent amounts of p24 were used to infect HeLa-CD4+-LTR-3 gal cells for infectivity measurement by the multinuclear activation of a galactosidase indicator (MAGI) assay. […] For cell-associated Gag analysis, cell pellets were lysed with either Triton X-100 or RIPA buffer with complete mini protease inhibitor cocktail (Roche) and analyzed by Western blotting. Protein bands were visualized using an infrared-based imaging system (Odyssey, LI-COR Biotechnology) and band intensities measured using the Li-Cor Odyssey software version 2.1.15. […]

With `COc1ccc2nc([S@@+]([O-])Cc3ncc(C)c(OC)c3C)[nH]c2c1` [F15, esomeprazole] the “reduction of intensity of Gag-Tsg101 co-localization signal” value [1] was roughly 2 fold and the “effectiveness in tissue culture budding assay” value (HIV-1 Gag VLP; compared with Tenatoprazole) was “less effective than Tenatoprazole”.
For `COc1ccc2[nH]c([S+]([O-])Cc3ncc(C)c(OC)c3C)nc2n1` (centres unmarked) [N16, tenatoprazole], the “co-localization of Gag and Tsg101C73A-myc” value ([1]; 50 μM N16) was “failed to prevent co-localization”, the “co-localization of Gag and Tsg101C87A-myc” value ([1]; 50 μM N16) was “effectively eliminated co-localization” and the “reduction of intensity of Gag-Tsg101 co-localization signal” value [1] was roughly 2 fold. For the same compound, the “budding directed by WT Gag” value (HIV-1 Gag VLP; 50 μM N16, 293T) was “inhibited”, the “Gag intracellular accumulation and VLP formation” value (HIV-1 Gag VLP; 293T, FIG. 15D) was “dose-dependent reduction” and the “budding of the Gag-DUb fusion” value (HIV-1 Gag VLP; N16 present, 293T) was “not inhibited”.
